Values of other authors as cited in patent US11147946B2, “Venous access catheters and methods for portal venous system catheterization” (THE REGENTS OF THE UNIVERSITY OF COLORADO, A BODY CORPORATE, priority 2014, dated 2021).
One block for each compound: values may come before it. Numbered stars: 1 amine (or outer) side, 2 acyl side, 3 side chain; on linkers, the order of the positions; unused ones are H or OH. Square brackets hold non-standard residues; d marks the D form. Side chains are listed from the residue outwards. Peptide text beside a SMILES is read from it. * marks the point of attachment. Ethylenediamine = C(CN[*:2])N[*:1]; Hyp = O=C(O)[C@@H]1C[C@@H](O)CN1; Phg = N[C@H](C(=O)O)c1ccccc1; CO = O=C([*:1])[*:2]; Bn = c1ccc(C*)cc1

Columns and labels:
[1] = test system: portal hypertension; conditions: compared with propranolol, cirrhosis
[2] = target: SSTR1 (Homo sapiens, UniProt P30872)
Chain of SSTR1 (P30872 whole entry): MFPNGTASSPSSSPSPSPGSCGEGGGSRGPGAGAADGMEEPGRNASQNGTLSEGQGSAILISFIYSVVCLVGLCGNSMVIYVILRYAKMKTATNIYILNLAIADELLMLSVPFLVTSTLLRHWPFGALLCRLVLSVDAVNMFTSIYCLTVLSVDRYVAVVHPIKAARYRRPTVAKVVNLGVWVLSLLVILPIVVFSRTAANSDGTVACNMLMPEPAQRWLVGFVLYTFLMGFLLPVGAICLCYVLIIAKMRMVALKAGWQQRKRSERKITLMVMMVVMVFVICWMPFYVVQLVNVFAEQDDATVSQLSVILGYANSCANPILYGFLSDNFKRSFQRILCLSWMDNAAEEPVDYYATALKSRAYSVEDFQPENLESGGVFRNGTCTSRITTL

[3] = target: SSTR4 (Homo sapiens, UniProt P31391)
Chain of SSTR4 (P31391 whole entry): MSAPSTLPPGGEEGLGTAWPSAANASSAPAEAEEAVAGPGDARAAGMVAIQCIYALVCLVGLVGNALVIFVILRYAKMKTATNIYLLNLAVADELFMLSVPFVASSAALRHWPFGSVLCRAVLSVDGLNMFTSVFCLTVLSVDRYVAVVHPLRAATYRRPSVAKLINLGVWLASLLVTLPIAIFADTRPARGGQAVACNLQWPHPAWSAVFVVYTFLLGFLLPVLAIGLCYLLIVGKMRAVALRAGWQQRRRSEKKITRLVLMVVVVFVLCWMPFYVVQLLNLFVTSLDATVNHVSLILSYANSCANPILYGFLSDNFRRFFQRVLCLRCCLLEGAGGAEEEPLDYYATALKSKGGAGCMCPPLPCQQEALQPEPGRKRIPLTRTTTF

[4] = target: SSTR3 (Homo sapiens, UniProt P32745)
Chain of SSTR3 (P32745 whole entry): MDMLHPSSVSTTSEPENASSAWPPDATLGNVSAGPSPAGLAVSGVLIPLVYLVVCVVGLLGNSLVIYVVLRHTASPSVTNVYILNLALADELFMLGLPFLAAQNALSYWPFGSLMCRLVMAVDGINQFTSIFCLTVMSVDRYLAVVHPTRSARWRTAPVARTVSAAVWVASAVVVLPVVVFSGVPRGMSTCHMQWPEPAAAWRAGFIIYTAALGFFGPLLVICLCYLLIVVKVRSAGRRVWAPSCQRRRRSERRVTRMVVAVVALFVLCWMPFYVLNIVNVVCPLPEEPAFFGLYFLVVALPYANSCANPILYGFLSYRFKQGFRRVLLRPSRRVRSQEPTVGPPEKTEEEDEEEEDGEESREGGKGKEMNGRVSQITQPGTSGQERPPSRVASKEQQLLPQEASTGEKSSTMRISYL

[5] = target: SSTR2 (Homo sapiens, UniProt P30874)
Chain of SSTR2 (P30874 whole entry): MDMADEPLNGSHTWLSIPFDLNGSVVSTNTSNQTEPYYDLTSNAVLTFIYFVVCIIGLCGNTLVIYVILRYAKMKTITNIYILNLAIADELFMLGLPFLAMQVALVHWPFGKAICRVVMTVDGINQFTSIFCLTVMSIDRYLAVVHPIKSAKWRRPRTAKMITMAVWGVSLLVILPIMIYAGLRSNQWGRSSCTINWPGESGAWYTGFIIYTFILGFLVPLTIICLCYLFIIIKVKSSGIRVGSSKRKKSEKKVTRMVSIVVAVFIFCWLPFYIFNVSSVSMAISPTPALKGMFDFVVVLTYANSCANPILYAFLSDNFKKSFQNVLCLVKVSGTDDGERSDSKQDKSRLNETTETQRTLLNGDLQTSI

[6] = target: SSTR5 (Homo sapiens, UniProt P35346)
Chain of SSTR5 (P35346 whole entry): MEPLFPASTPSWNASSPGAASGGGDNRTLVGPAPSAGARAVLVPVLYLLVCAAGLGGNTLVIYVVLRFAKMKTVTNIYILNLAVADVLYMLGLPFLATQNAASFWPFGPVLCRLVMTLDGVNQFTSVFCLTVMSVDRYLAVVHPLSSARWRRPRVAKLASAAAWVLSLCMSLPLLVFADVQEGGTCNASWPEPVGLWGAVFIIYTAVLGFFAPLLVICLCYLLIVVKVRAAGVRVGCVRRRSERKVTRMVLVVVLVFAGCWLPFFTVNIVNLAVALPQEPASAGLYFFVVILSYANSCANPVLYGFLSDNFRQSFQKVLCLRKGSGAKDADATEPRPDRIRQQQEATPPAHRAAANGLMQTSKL

[7] = test system: human pancreas (BxPC-3) carcinoma cell line
[8] = test system: human colon (Colo205) carcinoma cell line
[9] = target: (Homo sapiens, UniProt P08069)
Chain of (Homo sapiens, UniProt P08069) (P08069 31-736 limits assumed): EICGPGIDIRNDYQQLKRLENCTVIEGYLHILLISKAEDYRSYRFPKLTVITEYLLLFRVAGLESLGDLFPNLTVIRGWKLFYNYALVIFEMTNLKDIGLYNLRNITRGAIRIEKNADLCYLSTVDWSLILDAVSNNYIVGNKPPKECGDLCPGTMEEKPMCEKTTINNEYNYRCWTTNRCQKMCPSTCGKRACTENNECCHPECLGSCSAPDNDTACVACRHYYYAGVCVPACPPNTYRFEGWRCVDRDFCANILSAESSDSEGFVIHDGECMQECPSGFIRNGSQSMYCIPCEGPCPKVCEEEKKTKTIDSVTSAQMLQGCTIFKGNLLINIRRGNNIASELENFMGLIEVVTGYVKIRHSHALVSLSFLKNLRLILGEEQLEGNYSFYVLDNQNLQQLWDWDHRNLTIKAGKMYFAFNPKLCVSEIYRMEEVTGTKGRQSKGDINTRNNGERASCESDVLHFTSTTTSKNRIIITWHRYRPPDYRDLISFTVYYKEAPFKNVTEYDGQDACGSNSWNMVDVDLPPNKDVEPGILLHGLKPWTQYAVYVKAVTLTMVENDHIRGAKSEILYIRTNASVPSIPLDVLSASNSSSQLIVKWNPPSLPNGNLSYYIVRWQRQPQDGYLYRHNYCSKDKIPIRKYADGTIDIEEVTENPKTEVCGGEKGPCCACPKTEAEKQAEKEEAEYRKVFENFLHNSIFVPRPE
Chain of (Homo sapiens, UniProt P08069) (P08069 741-1367 limits assumed): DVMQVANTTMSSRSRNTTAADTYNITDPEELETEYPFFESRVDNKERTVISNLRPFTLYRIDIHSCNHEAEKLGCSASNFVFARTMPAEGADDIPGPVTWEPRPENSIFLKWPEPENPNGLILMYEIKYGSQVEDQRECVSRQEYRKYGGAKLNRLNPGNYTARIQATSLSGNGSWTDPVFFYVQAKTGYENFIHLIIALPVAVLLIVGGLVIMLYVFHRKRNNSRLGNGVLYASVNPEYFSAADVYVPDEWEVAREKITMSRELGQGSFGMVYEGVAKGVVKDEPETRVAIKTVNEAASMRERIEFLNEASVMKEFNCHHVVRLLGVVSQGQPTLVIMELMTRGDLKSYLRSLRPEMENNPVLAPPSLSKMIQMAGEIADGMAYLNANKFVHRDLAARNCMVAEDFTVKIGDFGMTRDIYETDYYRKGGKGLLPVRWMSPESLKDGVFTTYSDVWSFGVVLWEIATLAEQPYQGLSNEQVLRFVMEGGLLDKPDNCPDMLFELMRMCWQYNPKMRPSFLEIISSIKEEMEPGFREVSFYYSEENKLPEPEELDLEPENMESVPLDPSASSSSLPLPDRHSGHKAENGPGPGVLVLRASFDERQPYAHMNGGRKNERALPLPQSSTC

[10] = test system: human tumour; conditions: in vivo xenograft and orthotopic models
[11] = test system: human breast (MCF7) carcinoma cell line

Compound: COc1ccccc1OCCNCC(O)COc1cccc2[nH]c3ccccc3c12 (stereo not shown) [carvedilol]
reduction of portal hypertension (PH) [1]: more effective than propranolol

Compound: CC(C)[C@@H]1NC(=O)[C@H](CCCCN)NC(=O)[C@@H](Cc2c[nH]c3ccccc23)NC(=O)[C@H](Cc2ccc(O)cc2)NC(=O)[C@@H](NC(=O)[C@H](N)Cc2ccc3ccccc3c2)CSSC[C@@H](C(=O)N[C@H](C(N)=O)[C@@H](C)O)NC1=O [lanreotide]
binding affinity to SSTR1 [2]: reduced or no binding | binding affinity to SSTR4 [3]: reduced or no binding | binding affinity to SSTR3 [4]: reduced or no binding | binding affinity to SSTR2 [5]: high affinity

binding affinity to SSTR3 [4]: reduced affinity | binding affinity to SSTR2 [5]: high affinity
Compound: C[C@@H](O)[C@@H]1NC(=O)[C@H](CCCCN)NC(=O)[C@@H](Cc2c[nH]c3ccccc23)NC(=O)[C@H](Cc2ccccc2)NC(=O)[C@@H](NC(=O)[C@H](N)Cc2ccccc2)CSSC[C@@H](C(=O)N[C@H](CO)[C@@H](C)O)NC1=O [octreotide]

binding affinity to SSTR1 [2]: decreased affinity | binding affinity to SSTR5 [6]: high affinity | binding affinity to SSTR3 [4]: decreased affinity | binding affinity to SSTR2 [5]: decreased affinity
Compound: NCCCC[C@@H]1NC(=O)[C@@H](Cc2c[nH]c3ccccc23)NC(=O)[C@H](c2ccccc2)NC(=O)[C@@H]2C[C@@H](OC(=O)NCCN)CN2C(=O)[C@H](Cc2ccccc2)NC(=O)[C@H](Cc2ccc(OCc3ccccc3)cc2)NC1=O [pasireotide] (cyclo([Hyp]([CO-Ethylenediamine])[Phg][dW]KY(Bn)F))

binding affinity [9]: high affinity
Compound: IMC-A12: fully human monoclonal IgG1 antibody, anti-IGF1R
cell apoptosis [7]: induces cell apoptosis | cell proliferation [7]: inhibits cell proliferation | cell apoptosis [8]: induces cell apoptosis | cell proliferation [8]: inhibits cell proliferation | antitumour activity [10]: shown activity against a human tumour | cell apoptosis [11]: induces cell apoptosis | cell proliferation [11]: inhibits cell proliferation
